Laboratory results taken from ChEMBL document CHEMBL1909514, “Imidazo[2,1-b]thiazole guanylhydrazones as RSK2 inhibitors” (Eur J Med Chem, 2011).

Key:
Format in all cases: functional
SNB-75 = test: Growth inhibition of human SNB75 cells after 48 hrs by SRB assay; settings: SNB-75, 48 h
RPMI-8226 = test: Growth inhibition of human RPMI8226 cells after 48 hrs by SRB assay; settings: RPMI-8226, 48 h
NCI-H322M = test: Growth inhibition of human NCI-H322M cells after 48 hrs by SRB assay
TK-10 = test: Growth inhibition of human TK10 cells after 48 hrs by SRB assay; settings: TK-10, 48 h
SF-539 = test: Growth inhibition of human SF539 cells after 48 hrs by SRB assay; settings: SF-539, 48 h
HOP-62 = test: Growth inhibition of human HOP62 cells after 48 hrs by SRB assay; settings: HOP-62, 48 h
NCI-H460 = test: Growth inhibition of human NCI-H460 cells after 48 hrs by SRB assay; settings: NCI-H460, 48 h
[1] = read-out: pLC50 (the source's name) (converted)

Work on N=C(N)N/N=C\c1c(-c2ccc([N+](=O)[O-])cc2)nc2sc(Br)cn12 yielded a GI50 (SNB-75) of 204 nM, a CC50 (SNB-75; [1]) of 1290 nM and a TGI (SNB-75; read-out: pTGI (converted)) of 4680 nM. It also gave a GI50 (RPMI-8226) of 178 nM, a TGI (RPMI-8226; read-out: pTGI (converted)) of 417 nM and a GI50 (NCI-H322M) of 309 nM. The CC50 (NCI-H322M; [1]) was 3980 nM, the TGI (NCI-H322M; read-out: pTGI (converted)) was 4170 nM and the GI50 (TK-10) was 269 nM. It also gave a CC50 (TK-10; [1]) of 4470 nM, a TGI (TK-10; read-out: pTGI (converted)) of 1100 nM and a GI50 (SF-539) of 372 nM. It also gave a CC50 (SF-539; [1]) of 3720 nM, a TGI (SF-539; read-out: pTGI (converted)) of 1260 nM and a GI50 (HOP-62) of 191 nM. The CC50 (HOP-62; [1]) was 851 nM, the TGI (HOP-62; read-out: pTGI (converted)) was 3980 nM and the GI50 (NCI-H460) was 229 nM. For the same compound, the CC50 (NCI-H460; [1]) was 1820 nM and the TGI (NCI-H460; read-out: pTGI (converted)) was 501 nM.
